Test results: ChEMBL document CHEMBL3217712, “Improved biodistribution, pharmacokinetics and photodynamic efficacy using a new photostable sulfonamide bacteriochlorin” (Medchemcomm, 2012)

Assays:
[1] = n-Octanol-water partition coefficient, log P of the compound; assay type: physicochemical
S91 = test: Photodynamic efficacy against mouse Cloudman S91 cells allografted in DBA mouse assessed as time of tumor growth delay at 2 mg/kg, iv followed by irradiated with 70 mW cm'-2 diode laser light for 25 mins; assay type: functional

logP [1]: -1.7
Compound: O=S(=O)(O)c1ccc(Cl)c(-c2c3nc(c(-c4cc(S(=O)(=O)O)ccc4Cl)c4ccc([nH]4)c(-c4cc(S(=O)(=O)O)ccc4Cl)c4nc(c(-c5cc(S(=O)(=O)O)ccc5Cl)c5ccc2[nH]5)CC4)CC3)c1
Time (S91): 27 days
